Laboratory results from the Kinase Knowledgebase extract (Sharma et al. 2016).

Molecular target: CDK2 (human) (UniProt P24941)
Assay: Enzyme Assay

Row | Compound | IC50
1 | COc1ccc(NC(=O)c2ccc(C(=O)Nc3ccc(-n4cncn4)cc3)o2)c(C)c1 | ≤ 1 µM
2 | COc1ccc(NC(=O)c2ccc(C(=O)N3CCC(c4ccccn4)C3)s2)c(C)c1 (stereo not drawn) | 1 to 40 µM
3 | Cn1cnc(CCNC(=O)c2ccc(C(=O)Nc3ccc(-n4cncn4)cc3)s2)c1 | ≥ 40 µM
4 | O=C(Nc1ccc(-n2cncn2)cc1)c1ccc(C(=O)N2CCc3ccccc3C2)s1 | 1 to 40 µM
5 | O=C(Nc1ccc(-n2cncn2)cc1)c1ccc(C(=O)Nc2cccc(Cl)c2)s1 | 1 to 40 µM
6 | O=C(NCCc1ccccn1)c1ccc(C(=O)Nc2ccc(-n3cncn3)cc2)s1 | ≥ 40 µM
7 | CN(Cc1ccccc1)C(=O)c1ccc(C(=O)Nc2ccc(-n3cncn3)cc2)s1 | ≥ 40 µM
8 | Cc1cnc(CNC(=O)c2ccc(C(=O)Nc3ccc(-n4cncn4)cc3)s2)cn1 | ≥ 40 µM
9 | Cc1cc(OCCN2CCN(C)CC2)ccc1NC(=O)c1ccc(C(=O)Nc2ccc(-n3cncn3)cc2)s1 | ≤ 1 µM
10 | Cc1ccnc(NC(=O)c2ccc(C(=O)Nc3ccc(-n4cncn4)cc3)s2)c1 | ≥ 40 µM
11 | COc1ccc(C(=O)Nc2ccc(C(=O)Nc3ccc(-n4cncn4)c(F)c3)s2)c(C)c1 | ≤ 1 µM
12 | O=C(Nc1ccc(-n2cncn2)cc1)c1ccc(C(=O)NC2CCNCC2)s1 | ≥ 40 µM
13 | COc1ccc(C(=O)Nc2ccc(C(=O)N3CCC(Oc4cnccn4)CC3)o2)c(C)c1 | ≥ 40 µM
14 | COc1ccc(NC(=O)c2ccc(C(=O)N3CCC(Oc4cnccn4)CC3)s2)c(C)c1 | 1 to 40 µM
15 | Cc1ccccc1C(=O)Nc1ccc(C(=O)Nc2ccc(-n3cncn3)cc2)o1 | ≥ 40 µM
16 | CN1CCN(C(=O)c2ccc(C(=O)Nc3ccc(-n4cncn4)cc3)s2)CC1 | ≥ 40 µM
17 | O=C(NCCc1cccnc1)c1ccc(C(=O)Nc2ccc(-n3cncn3)cc2)s1 | 1 to 40 µM
18 | Cc1cc(N[C@H]2CCNC2)ccc1NC(=O)c1ccc(C(=O)Nc2ccc(-n3cncn3)c(F)c2)s1 | ≤ 1 µM
19 | Cc1cc(CN2CCOCC2)ccc1NC(=O)c1ccc(C(=O)Nc2ccc(-n3cncn3)c(F)c2)s1 | ≤ 1 µM
20 | COc1ccc(NC(=O)c2ccc(C(=O)Nc3ccc(Cn4ccnc4)cc3)s2)c(C)c1 | ≥ 40 µM
21 | COc1ccc(NC(=O)c2ccc(C(=O)Nc3ccc(CN)cc3)s2)c(C)c1 | ≥ 40 µM
22 | O=C(NCCN1CCOCC1)c1ccc(C(=O)Nc2ccc(-n3cncn3)cc2)s1 | ≥ 40 µM
23 | COc1ccc(NC(=O)c2ccc(C(=O)Nc3ccc(-n4cncn4)cc3)o2)cc1 | ≤ 1 µM
24 | Cn1nc(-c2ccccc2)cc1NC(=O)c1ccc(C(=O)Nc2ccc(-n3cncn3)cc2)s1 | 1 to 40 µM
25 | Cc1cc(NC(=O)c2ccc(C(=O)Nc3ccc(-n4cncn4)cc3)s2)n(C)n1 | 1 to 40 µM

Row | Compound | IC50
26 | O=C(Nc1ccc(-n2cncn2)cc1)c1ccc(C(=O)Nc2cc(F)ccc2F)s1 | ≥ 40 µM
27 | CCOc1ccccc1NC(=O)c1ccc(C(=O)Nc2ccc(-n3cncn3)c(F)c2)s1 | ≥ 40 µM
28 | COc1ccc(N(C)C(=O)c2ccc(C(=O)Nc3ccc(-n4cncn4)cc3)s2)cc1 | 1 to 40 µM
29 | O=C(Nc1ccc(-n2cncn2)cc1)c1ccc(C(=O)Nc2cccc(O)c2)s1 | ≥ 40 µM
30 | COc1ccc(NC(=O)c2ccc(C(=O)Nc3ccc4c(c3)OCO4)s2)c(C)c1 | ≥ 40 µM
31 | O=C(NCC1CCCCC1)c1ccc(C(=O)Nc2ccc(-n3cncn3)cc2)s1 | ≥ 40 µM
32 | O=C(Nc1ccc(-n2cncn2)c(F)c1)c1ccc(C(=O)Nc2ccccc2N2CCOCC2)s1 | ≥ 40 µM
33 | CN1CCC(N(C)C(=O)c2ccc(C(=O)Nc3ccc(-n4cncn4)c(F)c3)o2)CC1 | ≥ 40 µM
34 | O=C(NCCN1CCNC1=O)c1ccc(C(=O)Nc2ccc(-n3cncn3)cc2)s1 | ≥ 40 µM
35 | O=C(Nc1ccccc1)c1ccc(C(=O)Nc2ccc(-n3cncn3)cc2)s1 | ≥ 40 µM
36 | O=C(Nc1ccc(-n2cncn2)c(F)c1)c1ccc(C(=O)Nc2ccccc2OC2CCCCC2)s1 | ≥ 40 µM
37 | Cc1cc(OCCN2CCOCC2)ccc1NC(=O)c1ccc(C(=O)Nc2ccc(-n3cncn3)cc2)s1 | ≤ 1 µM
38 | CN(C)C(=O)c1ccc(C(=O)Nc2ccc(-n3cncn3)c(F)c2)o1 | ≥ 40 µM
39 | CC(C)CNC(=O)c1ccc(C(=O)Nc2ccc(-n3cncn3)cc2)s1 | ≥ 40 µM
40 | COc1ccc(C(=O)Nc2ccc(C(=O)N3CCC(c4ccccn4)C3)s2)c(C)c1 (stereo not drawn) | ≥ 40 µM
41 | O=C(Nc1ccc(-n2cncn2)cc1)c1ccc(C(=O)Nc2nccs2)s1 | ≥ 40 µM
42 | COc1ccc(NC(=O)c2ccc(C(=O)Nc3ccc(-n4cncn4)cc3)s2)cc1O | ≥ 40 µM
43 | COC[C@H](C)NC(=O)c1ccc(C(=O)Nc2ccc(-n3cncn3)cc2)s1 | ≥ 40 µM
44 | O=C(Nc1ccc(-n2cncn2)cc1)c1ccc(C(=O)Nc2ccccc2Cl)s1 | ≥ 40 µM
45 | Cn1c(NC(=O)c2ccc(C(=O)Nc3ccc(-n4cncn4)cc3)s2)nc2ccccc21 | ≥ 40 µM
46 | COc1ccc(NCc2ccc(C(=O)Nc3ccc(-n4cncn4)cc3)o2)c(C)c1 | ≥ 40 µM
47 | O=C(Nc1ccc(-n2cncn2)cc1)c1ccc(C(=O)NC2CCCC2)s1 | 1 to 40 µM
48 | COc1ccc(NC(=O)c2ccc(C(=O)Nc3ccc(-n4cncn4)cc3)s2)cc1Cl | 1 to 40 µM
49 | COc1ccc(C(=O)Nc2ccc(C(=O)Nc3ccc(-n4cncn4)cc3)o2)c(C)c1 | ≥ 40 µM
50 | C[C@@H](NC(=O)c1ccc(C(=O)Nc2ccc(-n3cncn3)c(F)c2)o1)C1CCCCC1 | 1 to 40 µM

Row | Compound | IC50
51 | Cn1nc(-c2cccs2)cc1NC(=O)c1ccc(C(=O)Nc2ccc(-n3cncn3)cc2)s1 | ≥ 40 µM
52 | Cc1cc(NC(=O)c2ccc(C(=O)Nc3ccc(-n4cncn4)cc3)s2)ccc1F | ≥ 40 µM
53 | O=C(NCc1nc2ccccc2[nH]1)c1ccc(C(=O)Nc2ccc(-n3cncn3)cc2)s1 | ≥ 40 µM
54 | O=C(Nc1ccc(-n2cncn2)cc1)c1ccc(C(=O)Nc2cc(-c3ccco3)n[nH]2)s1 | ≥ 40 µM
55 | O=C(Nc1ccc(-n2cncn2)cc1)c1ccc(C(=O)NC2CCCCC2)o1 | ≤ 1 µM
56 | O=C(Nc1ccc(-n2cncn2)cc1)c1ccc(C(=O)NC2CCC2)s1 | ≥ 40 µM
57 | COc1ccc(NC(=O)c2ccc(C(=O)Nc3ccc(N4CCOCC4)nc3)s2)c(C)c1 | ≥ 40 µM
58 | COc1ccc(NC(=O)c2ccc(C(=O)Nc3ccc(-c4nc[nH]n4)c(F)c3)o2)c(C)c1 | ≤ 1 µM
59 | COc1ccc(NC(=O)c2ccc(C(=O)Nc3ccc(-n4cncn4)cc3F)s2)c(C)c1 | ≥ 40 µM
60 | Cc1cc(N2CCNCC2)ccc1NC(=O)c1ccc(C(=O)Nc2ccc(-n3cncn3)cc2)s1 | ≤ 1 µM
61 | Cc1ccccc1NC(=O)c1ccc(C(=O)Nc2ccc(-n3cncn3)cc2)s1 | ≤ 1 µM
62 | Cc1cc(N(C)CCN(C)C)ccc1NC(=O)c1ccc(C(=O)Nc2ccc(-n3cncn3)cc2)s1 | ≤ 1 µM
63 | COc1cccc(C2CCN(C(=O)c3ccc(C(=O)Nc4ccc(-n5cncn5)cc4)s3)C2)c1 (stereo not drawn) | ≥ 40 µM
64 | COc1ccc(C(=O)Nc2ccc(C(=O)Nc3ccc(-n4cncn4)cc3)s2)c(C)c1 | ≤ 1 µM
65 | CN(C(=O)c1ccc(C(=O)Nc2ccc(-n3cncn3)cc2)s1)C1CCCCC1 | ≤ 1 µM
66 | COc1ccc(NC(=O)c2ccc(C(=O)Nc3ccc(-n4cncn4)c(F)c3)s2)c(C)c1 | ≤ 1 µM
67 | O=C(Nc1ccncc1)c1ccc(C(=O)Nc2ccc(-n3cncn3)cc2)o1 | 1 to 40 µM
68 | COc1ccc(NC(=O)c2ccc(C(=O)Nc3ccc(-c4nc[nH]n4)c(F)c3)s2)c(C)c1 | ≤ 1 µM
69 | COc1ccc(NC(=O)c2ccc(C(=O)Nc3ccc(-c4nnc[nH]4)cc3)s2)c(C)c1 | ≤ 1 µM
70 | Cc1cc(OCCO)ccc1NC(=O)c1ccc(C(=O)Nc2ccc(-n3cncn3)cc2)s1 | ≤ 1 µM
71 | CN1CCN(c2ccccc2NC(=O)c2ccc(C(=O)Nc3ccc(-n4cncn4)c(F)c3)s2)CC1 | ≥ 40 µM
72 | O=C(Nc1ccc(-n2cncn2)cc1)c1ccc(C(=O)NC2Cc3ccccc3C2)s1 | ≥ 40 µM
73 | COc1ccc(C(=O)Nc2ccc(C(=O)Nc3ccc(-n4ccnc4)cc3)o2)c(C)c1 | ≥ 40 µM
74 | COc1ccc(NC(=O)c2ccc(C(=O)Nc3ccc(-c4c(C)noc4C)cc3)s2)c(C)c1 | ≥ 40 µM
75 | O=C(Nc1ccc(C(=O)Nc2ccc(-n3cncn3)cc2)s1)c1ccccc1 | ≤ 1 µM

Row | Compound | IC50
76 | COc1ccc(NC(=O)c2ccc(C(=O)Nc3ccc(-c4nnn[nH]4)cc3)s2)c(C)c1 | ≥ 40 µM
77 | COc1ccc(NC(=O)c2ccc(C(=O)Nc3ccc(-n4cccn4)cc3)s2)c(C)c1 | ≥ 40 µM
78 | O=C(NCc1cccnc1)c1ccc(C(=O)Nc2ccc(-n3cncn3)cc2)s1 | ≥ 40 µM
79 | O=C(NCCc1c[nH]cn1)c1ccc(C(=O)Nc2ccc(-n3cncn3)cc2)s1 | ≥ 40 µM
80 | O=C(Nc1ccc(-n2cncn2)cc1)c1ccc(C(=O)Nc2ccc3ncsc3c2)s1 | ≥ 40 µM
81 | O=C(Nc1ccc(-n2cncn2)c(F)c1)c1ccc(C(=O)Nc2ccccc2Oc2cccnc2)s1 | ≥ 40 µM
82 | O=C(NC[C@@H]1CCNC1)c1ccc(C(=O)Nc2ccc(-n3cncn3)cc2)s1 | ≥ 40 µM
83 | COc1ccc(NC(=O)c2ccc(C(=O)Nc3ccc(-n4ccnc4)cc3)s2)c(C)c1 | ≥ 40 µM
84 | COc1ccc(NC(=O)c2ccc(C(=O)Nc3ccc(-n4cncn4)cc3)s2)cc1OC | ≥ 40 µM
85 | COc1ccc(NC(=O)c2ccc(C(=O)Nc3ccc(-c4ncn(C)n4)cc3)s2)c(C)c1 | ≥ 40 µM
86 | O=C(Nc1ccc(-n2cncn2)cc1)c1ccc(C(=O)N[C@H]2CCc3ccccc32)s1 | 1 to 40 µM
87 | O=C(Nc1ccc(C(=O)Nc2ccc(-n3cncn3)cc2)o1)c1ccncc1 | ≥ 40 µM
88 | CNCc1ccc(NC(=O)c2ccc(C(=O)Nc3ccc(-n4cncn4)c(F)c3)s2)c(C)c1 | 1 to 40 µM
89 | O=C(Nc1ccc(-n2cncn2)cc1)c1ccc(C(=O)Nc2cccc(-c3cnco3)c2)s1 | ≥ 40 µM
90 | O=C(Nc1ccc(-n2cncn2)cc1)c1ccc(C(=O)N2CCN(C3CCCC3)CC2)s1 | ≥ 40 µM
91 | COc1ccc(C(=O)Nc2ccc(C(=O)Nc3ccc(-n4cncn4)cc3)s2)cc1 | 1 to 40 µM
92 | COc1ccc(NC(=O)c2ccc(C(=O)Nc3ccc(C(N)=O)cc3)s2)c(C)c1 | ≥ 40 µM
93 | Cc1cc(CN2CCN(C)CC2)ccc1NC(=O)c1ccc(C(=O)Nc2ccc(-n3cncn3)c(F)c2)s1 | ≤ 1 µM
94 | Cc1cnc(NC(=O)c2ccc(C(=O)Nc3ccc(-n4cncn4)cc3)s2)s1 | ≥ 40 µM
95 | CCCCN(C)C(=O)c1ccc(C(=O)Nc2ccc(-n3cncn3)cc2)s1 | ≥ 40 µM
96 | CN(C)CCNC(=O)c1ccc(C(=O)Nc2ccc(-n3cncn3)c(F)c2)o1 | ≥ 40 µM
97 | COc1ccc(NC(=O)c2ccc(C(=O)Nc3ccc(N4CCOCC4)cc3)s2)c(C)c1 | ≥ 40 µM
98 | COc1ccc(C(=O)Nc2ccc(C(=O)N3CCC(c4ccccn4)C3)o2)c(C)c1 (stereo not drawn) | ≥ 40 µM
